ChEMBL document CHEMBL4831514, “Novel betulin dicarboxylic acid ester derivatives as potent antiviral agents: Design, synthesis, biological evaluation, structure-activity relationship and in-silico study” (Eur J Med Chem, 2021)
Active and inactive are the calls of the source. The rule behind the calls is not given here.

What follows are compounds tested on Vesicular stomatitis virus (assay: Antiviral activity against Vesicular stomatitis virus Indiana infected in A549 cells assessed as inhibition of viral adsorption at early stage of replication treated for 1 hr during viral infection followed by replacement with fresh medium and measured after 48 hrs by MTT assay).
Assay type: functional, organism-based
In the case of C#CC1(NC(=O)c2ccccc2C(=O)OC[C@]23CC[C@@H](C(=C)C)[C@@H]2[C@H]2CC[C@@H]4[C@@]5(C)CC[C@H](O)C(C)(C)[C@@H]5CC[C@@]4(C)[C@]2(C)CC3)CCCCC1, the Activity is reported as “inactive”.
In the case of C=C(C)[C@@H]1CC[C@]2(COC(=O)c3ccccc3C(=O)N3CCSCC3)CC[C@]3(C)[C@H](CC[C@@H]4[C@@]5(C)CC[C@H](O)C(C)(C)[C@@H]5CC[C@]43C)[C@@H]12, the Activity is reported as “inactive”.
In the case of C=C(C)[C@@H]1CC[C@]2(COC(=O)c3cccc(C(=O)N4CCSCC4)c3)CC[C@]3(C)[C@H](CC[C@@H]4[C@@]5(C)CC[C@H](O)C(C)(C)[C@@H]5CC[C@]43C)C12 (single isomer, unassigned), the Activity is reported as “inactive”.
C#CC1(NC(=O)CCCC(=O)OC[C@]23CCC(C(=C)C)[C@@H]2[C@H]2CC[C@@H]4[C@@]5(C)CC[C@H](O)C(C)(C)[C@@H]5CC[C@@]4(C)[C@]2(C)CC3)CCCCC1 (single isomer, unassigned) was tested, and the Activity was “inactive”.
In the case of Nc1nc2c(ncn2COCCO)c(=O)[nH]1 [ACYCLOVIR], the Activity is reported as “inactive”.
For C=C(C)[C@@H]1CC[C@]2(COC(=O)CCCC(=O)N3CCCCC3)CC[C@]3(C)[C@H](CC[C@@H]4[C@@]5(C)CC[C@H](O)C(C)(C)[C@@H]5CC[C@]43C)[C@@H]12, the Activity was “inactive”.
C=C(C)[C@@H]1CC[C@]2(COC(=O)CCCCCCCCCC(=O)N3CCCCC3)CC[C@]3(C)[C@H](CC[C@@H]4[C@@]5(C)CC[C@H](O)C(C)(C)[C@@H]5CC[C@]43C)[C@@H]12 was tested, and the Activity was “inactive”.
In the case of C=C(C)[C@@H]1CC[C@]2(COC(=O)CCC(=O)O)CC[C@]3(C)[C@H](CC[C@@H]4[C@@]5(C)CCC(O)C(C)(C)[C@@H]5CC[C@]43C)[C@@H]12 (single isomer, unassigned), the Activity is reported as “inactive”.
In the case of C=C(C)[C@@H]1CC[C@]2(COC(=O)CCCC(=O)N3CCSCC3)CC[C@]3(C)[C@H](CC[C@@H]4[C@@]5(C)CC[C@H](O)C(C)(C)[C@@H]5CC[C@]43C)[C@@H]12, the Activity is reported as “inactive”.
For Nc1ccn(C[C@@H](CO)OCP(=O)(O)O)c(=O)n1.O.O [CIDOFOVIR], the Activity was “inactive”.
With C#CCNC(=O)CCC(=O)OC[C@]12CC[C@@H](C(=C)C)C1[C@H]1CC[C@@H]3[C@@]4(C)CC[C@H](O)C(C)(C)[C@@H]4CC[C@@]3(C)[C@]1(C)CC2 (single isomer, unassigned) the Activity was “inactive”.
With C#CCNC(=O)/C(C)=C/C(=O)OC[C@]12CC[C@@H](C(=C)C)[C@@H]1[C@H]1CC[C@@H]3[C@@]4(C)CC[C@H](O)C(C)(C)[C@@H]4CC[C@@]3(C)[C@]1(C)CC2 the Activity was “inactive”.
In the case of NC(=O)c1ncn([C@@H]2O[C@H](CO)[C@@H](O)[C@H]2O)n1 [RIBAVIRIN], the Activity is reported as “inactive”.
In the case of C#CC1(NC(=O)/C(C)=C/C(=O)OC[C@]23CC[C@@H](C(=C)C)[C@@H]2[C@H]2CC[C@@H]4[C@@]5(C)CC[C@H](O)C(C)(C)[C@@H]5CC[C@@]4(C)[C@]2(C)CC3)CCCCC1, the Activity is reported as “inactive”.
In the case of C=C(C)[C@@H]1CC[C@]2(COC(=O)c3ccccc3C(=O)N3CCCCC3)CC[C@]3(C)[C@H](CC[C@H]4C3(C)CC[C@H]3C(C)(C)[C@@H](O)CC[C@@]34C)[C@@H]12 (single isomer, unassigned), the Activity is reported as “inactive”.
C#CCNC(=O)c1ccccc1C(=O)OC[C@]12CC[C@@H](C(=C)C)[C@@H]1[C@H]1CC[C@@H]3[C@@]4(C)CC[C@H](O)C(C)(C)[C@@H]4CC[C@@]3(C)[C@]1(C)CC2 was tested, and the Activity was “inactive”.
With C#CCNC(=O)CCCCCCCCCC(=O)OC[C@]12CC[C@@H](C(=C)C)[C@@H]1[C@H]1CC[C@@H]3[C@@]4(C)CC[C@H](O)C(C)(C)[C@@H]4CC[C@@]3(C)[C@]1(C)CC2 the Activity was “inactive”.
For C=C(C)[C@@H]1CC[C@]2(COC(=O)CCC(=O)N3CCOCC3)CC[C@]3(C)[C@H](CC[C@@H]4[C@@]5(C)CC[C@H](O)C(C)(C)[C@@H]5CC[C@]43C)[C@@H]12, the Activity was “inactive”.
With C=C(C)[C@@H]1CC[C@]2(COC(=O)/C=C(\C)C(=O)N3CCOCC3)CC[C@]3(C)[C@H](CC[C@@H]4[C@@]5(C)CC[C@H](O)C(C)(C)[C@@H]5CC[C@]43C)[C@@H]12 the Activity was “inactive”.
With C=C(C)[C@@H]1CC[C@]2(COC(=O)c3cccc(C(=O)N4CCCCC4)c3)CC[C@]3(C)[C@H](CC[C@@H]4[C@@]5(C)CC[C@H](O)C(C)(C)[C@@H]5CC[C@]43C)[C@@H]12 the Activity was “inactive”.
C=C(C)[C@@H]1CC[C@]2(COC(=O)CCC(=O)N3CCSCC3)CC[C@]3(C)[C@H](CC[C@@H]4[C@@]5(C)CC[C@H](O)C(C)(C)[C@@H]5CC[C@]43C)[C@@H]12 was tested, and the Activity was “inactive”.
For C=C(C)[C@@H]1CC[C@]2(COC(=O)/C=C/C(=O)O)CC[C@]3(C)[C@H](CC[C@@H]4[C@@]5(C)CC[C@H](O)C(C)(C)[C@@H]5CC[C@]43C)[C@@H]12, the Activity was “inactive”.
C=C(C)[C@@H]1CC[C@]2(COC(=O)c3ccccc3C(=O)O)CC[C@]3(C)[C@H](CC[C@@H]4[C@@]5(C)CC[C@H](O)C(C)(C)[C@@H]5CC[C@]43C)[C@@H]12 was tested, and the Activity was “inactive”.
In the case of C#CC1(NC(=O)CCC(=O)OC[C@]23CC[C@@H](C(=C)C)[C@@H]2[C@H]2CC[C@@H]4[C@@]5(C)CC[C@H](O)C(C)(C)[C@@H]5CC[C@@]4(C)[C@]2(C)CC3)CCCCC1, the Activity is reported as “inactive”.
With C=C(C)[C@@H]1CC[C@]2(COC(=O)CCCC(=O)O)CC[C@]3(C)[C@H](CC[C@@H]4[C@@]5(C)CC[C@H](O)C(C)(C)[C@@H]5CC[C@]43C)[C@@H]12 the Activity was “inactive”.
With C=C(C)[C@@H]1CC[C@]2(COC(=O)CSCC(=O)O)CC[C@]3(C)[C@H](CC[C@@H]4[C@@]5(C)CC[C@H](O)C(C)(C)[C@@H]5CC[C@]43C)[C@@H]12 the Activity was “inactive”.
In the case of C=C(C)[C@@H]1CC[C@]2(COC(=O)c3cccc(C(=O)O)c3)CC[C@]3(C)[C@H](CC[C@@H]4[C@@]5(C)CC[C@H](O)C(C)(C)[C@@H]5CC[C@]43C)[C@@H]12, the Activity is reported as “inactive”.
C=C(C)[C@@H]1CC[C@]2(COC(=O)CCC(=O)N3CCCCC3)CC[C@]3(C)[C@H](CC[C@@H]4[C@@]5(C)CCC(O)C(C)(C)[C@@H]5CC[C@]43C)[C@@H]12 (single isomer, unassigned) was tested, and the Activity was “inactive”.
For C=C(C)[C@@H]1CC[C@]2(COC(=O)c3cccc(C(=O)N4CCOCC4)c3)CC[C@]3(C)[C@H](CC[C@@H]4[C@@]5(C)CC[C@H](O)C(C)(C)[C@@H]5CC[C@]43C)[C@@H]12, the Activity was “inactive”.
With C=C(C)[C@@H]1CC[C@]2(COC(=O)c3ccccc3C(=O)N3CCOCC3)CC[C@]3(C)[C@H](CC[C@@H]4[C@@]5(C)CC[C@H](O)C(C)(C)[C@@H]5CC[C@]43C)[C@@H]12 the Activity was “inactive”.
With C=C(C)[C@@H]1CC[C@]2(COC(=O)CCCCCCCCCC(=O)O)CC[C@]3(C)[C@H](CC[C@@H]4[C@@]5(C)CC[C@H](O)C(C)(C)[C@@H]5CC[C@]43C)[C@@H]12 the Activity was “inactive”.
C=C(C)[C@@H]1CC[C@]2(COC(=O)/C=C(\C)C(=O)N3CCCCC3)CC[C@]3(C)[C@H](CC[C@@H]4[C@@]5(C)CC[C@H](O)C(C)(C)[C@@H]5CC[C@]43C)[C@@H]12 was tested, and the Activity was “inactive”.
For C=C(C)[C@@H]1CCC2(COC(=O)CCCCCCCCCC(=O)N3CCSCC3)CC[C@]3(C)[C@H](CC[C@@H]4[C@@]5(C)CC[C@H](O)C(C)(C)[C@@H]5CC[C@]43C)[C@@H]12 (single isomer, unassigned), the Activity was “inactive”.
In the case of C=C(C)[C@@H]1CC[C@]2(COC(=O)CCCC(=O)N3CCOCC3)CC[C@]3(C)[C@H](CC[C@@H]4[C@@]5(C)CC[C@H](O)C(C)(C)[C@@H]5CC[C@]43C)[C@@H]12, the Activity is reported as “inactive”.
With C#CC1(NC(=O)c2cccc(C(=O)OC[C@]34CC[C@@H](C(=C)C)[C@@H]3[C@H]3CC[C@@H]5[C@@]6(C)CC[C@H](O)C(C)(C)[C@@H]6CC[C@@]5(C)[C@]3(C)CC4)c2)CCCCC1 the Activity was “inactive”.
C#CC1(NC(=O)CCCCCCCCCC(=O)OC[C@]23CC[C@@H](C(=C)C)[C@@H]2[C@H]2CCC4[C@@]5(C)CC[C@H](O)C(C)(C)[C@@H]5CC[C@@]4(C)[C@]2(C)CC3)CCCCC1 (single isomer, unassigned) was tested, and the Activity was “inactive”.
With C=C(C)[C@@H]1CC[C@]2(COC(=O)/C=C(\C)C(=O)N3CCSCC3)CC[C@]3(C)[C@H](CC[C@@H]4[C@@]5(C)CC[C@H](O)C(C)(C)[C@@H]5CC[C@]43C)[C@@H]12 the Activity was “inactive”.
For C#CCNC(=O)CCCC(=O)OC[C@]12CC[C@@H](C(=C)C)[C@@H]1[C@H]1CC[C@@H]3[C@@]4(C)CC[C@H](O)C(C)(C)[C@@H]4CC[C@@]3(C)[C@]1(C)CC2, the Activity was “inactive”.
C#CCNC(=O)c1cccc(C(=O)OC[C@]23CC[C@@H](C(=C)C)[C@@H]2[C@H]2CC[C@@H]4C5(C)CC[C@H](O)C(C)(C)[C@@H]5CC[C@@]4(C)[C@]2(C)CC3)c1 (single isomer, unassigned) was tested, and the Activity was “inactive”.
With C=C(C)[C@@H]1CC[C@]2(COC(=O)/C=C(\C)C(=O)O)CC[C@]3(C)[C@H](CC[C@@H]4[C@@]5(C)CC[C@H](O)C(C)(C)[C@@H]5CC[C@]43C)[C@@H]12 the Activity was “inactive”.
C=C(C)[C@@H]1CC[C@]2(CO)CC[C@]3(C)[C@H](CC[C@@H]4[C@@]5(C)CC[C@H](O)C(C)(C)[C@@H]5CC[C@]43C)[C@@H]12 [BETULIN] was tested, and the Activity was “inactive”.
In the case of C=C(C)[C@@H]1CC[C@]2(COC(=O)CCCCCCCCCC(=O)N3CCOCC3)CC[C@]3(C)[C@H](CC[C@@H]4[C@@]5(C)CC[C@H](O)C(C)(C)[C@@H]5CC[C@]43C)[C@@H]12, the Activity is reported as “inactive”.
